From PubChem BioAssay AID463203 (Broad Institute, 2010)
Active and inactive are the calls of the source.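 Rule for the calls: active = more than half of replicate measurements showing over 20% loss of kinase signal relative to plate controls; inconclusive = some but at most half of replicates over 20% loss; inactive = no replicate over 20% signal loss.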

What follows are molecules tested against Glycogen synthase kinase-3 alpha (Homo sapiens) (UniProt P49840) (assay: concentration-response blocking of human GSK3A – biochemical, luminescence, cell-free homogeneous, retest, dose response (AID 463203)). Settings: GSK-3 alpha enzyme, ADP-Glo luminescence, 60 min.
Glycogen synthase kinase-3 alpha (Homo sapiens), sequence (P49840 whole entry, looked up): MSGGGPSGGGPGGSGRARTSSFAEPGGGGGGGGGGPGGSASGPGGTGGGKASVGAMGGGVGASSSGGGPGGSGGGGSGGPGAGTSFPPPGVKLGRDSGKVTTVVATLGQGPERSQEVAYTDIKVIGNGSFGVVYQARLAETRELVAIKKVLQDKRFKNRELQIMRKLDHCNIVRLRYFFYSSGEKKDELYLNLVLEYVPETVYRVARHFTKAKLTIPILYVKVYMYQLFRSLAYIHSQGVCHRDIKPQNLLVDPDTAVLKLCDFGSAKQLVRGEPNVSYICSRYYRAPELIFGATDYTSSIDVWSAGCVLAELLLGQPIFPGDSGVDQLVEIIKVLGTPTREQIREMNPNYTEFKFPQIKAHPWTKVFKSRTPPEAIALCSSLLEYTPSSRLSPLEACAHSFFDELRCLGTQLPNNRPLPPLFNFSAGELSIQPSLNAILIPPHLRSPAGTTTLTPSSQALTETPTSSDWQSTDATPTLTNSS

Compound	AC50
CCC(Oc1ccccc1)C(=O)N(C)CC(=O)N(CC(C)C)c1c(N)n(CC(C)C)c(=O)[nH]c1=O (stereo unspecified)	> 30 µM (inactive)
Cc1sc2ncnc(N3CCC(C(=O)Nc4ccc(C#N)cc4)CC3)c2c1C	> 30 µM (inactive)
O=C(Cn1c(NCCO)nc2ccccc21)NCC1CCCO1 (stereo unspecified)	> 30 µM (inactive)
CC1CCCCC12NC(=O)N(CC(=O)Nc1sc3c(c1C(N)=O)CCC3)C2=O (stereo unspecified)	11.4 µM
CCCCCCCCCCOC(=O)Cn1c(COc2ccc(OC)cc2)[n+](C)c2ccccc21	> 30 µM (inactive)
COc1ccc(N=Nc2c(C)n[nH]c2C)cc1	> 30 µM (inactive)
S=C(Nc1ccc(Cl)cc1)Nc1cccc2cnccc12	> 30 µM (inactive)
O=C(NCc1c(F)cccc1F)c1cc(COc2c(F)cccc2F)on1	> 30 µM (inactive)
Cc1nc(SCC(=O)Nc2nc3ccccc3s2)n[nH]1	> 30 µM (inactive)
Cc1csc(NC(=O)C2CC(=O)N(c3ccc4c(c3)OCCO4)C2)n1 (stereo unspecified)	> 30 µM (inactive)
Cc1cccc(/C(N)=N/OC(=O)c2ccc3c(c2)OCO3)c1	24.7 µM
Cc1cccc(N=c2oc3cc(O)ccc3cc2C(N)=O)c1	5.52 µM
NC(=O)c1ccc(N=C2C(=O)Nc3ccc([N+](=O)[O-])cc32)cc1	> 30 µM (inactive)
COc1ccc(Br)cc1C1CC(=O)N2CN(Cc3ccccc3)CSC2=C1C#N (stereo unspecified)	> 30 µM (inactive)
CCn1ncc([N+](=O)[O-])c1C(=O)N1CCCC1	> 30 µM (inactive)
Cc1nc(Nc2ccc(C(=O)O)cc2)nc(Nc2ccc(C(=O)O)cc2)c1[N+](=O)[O-]	11.7 µM
O=C(Nc1nccs1)C1CCN(S(=O)(=O)c2cnc[nH]2)CC1	> 30 µM (inactive)
COc1ccc(OCC(=O)Nc2ccc3c(c2)C(=O)NC3=O)cc1	12.2 µM
COc1cc(C2C(C#N)=C(N)Oc3n[nH]c(-c4cccs4)c32)cc(OC)c1O (stereo unspecified)	> 30 µM (inactive)
CC(C)(C)NC(=O)/C(=C\c1ccccc1F)NC(=O)c1ccc([N+](=O)[O-])cc1	> 30 µM (inactive)
O=C(CCSc1nc(-c2ccc3c(c2)OCO3)cc(C(F)(F)F)n1)NCc1ccco1	> 30 µM (inactive)
CCN1C(=O)/C(=C/c2cccs2)N(C)C1=S	> 30 µM (inactive)
NNC(=O)CCCCCCCCCCOCCCCO	> 30 µM (inactive)
COc1ccc(NC(=O)c2c(Nc3ccccc3)sc(C(=O)c3ccc(F)cc3)c2N)cc1	> 30 µM (inactive)
O=[N+]([O-])c1cccc(-c2ccn[nH]2)c1	> 30 µM (inactive)
Cc1cccc(-c2nnc(SCc3nc4ccccc4[nH]3)n2Cc2ccco2)c1	> 30 µM (inactive)

Compound	AC50
CN1/C(=C/C2CC(=O)NC2=O)C(C)(C)c2ccccc21 (stereo unspecified)	5.14 µM
CN(C)CCCNS(=O)(=O)c1ccc(NC2CCCCCC2)c([N+](=O)[O-])c1	> 30 µM (inactive)
COc1cc(C(=O)Oc2cc(C)cc(C)c2)cc(OC)c1OC	> 30 µM (inactive)
CCC(=NCCCn1ccnc1)c1c(O)n(-c2ccccc2)c(=O)[nH]c1=O	27.8 µM
Cc1cccc(-c2nnc3n2N=C(c2ccccc2)CS3)c1	> 30 µM (inactive)
Fc1ccc(/C=N/Nc2nccnc2Cl)cc1	> 30 µM (inactive)
Cc1ccccc1CSc1nnc(-c2ccncc2)n1C	> 30 µM (inactive)
COc1ccccc1NC(=O)CCSc1nnc(-c2ccc(O)cc2)o1	8.24 µM
COc1ccc2cc(C(N)=O)c(=Nc3ccc(C)cc3)oc2c1	> 30 µM (inactive)
O=[N+]([O-])c1ccc(NC2CCCC2)cc1	> 30 µM (inactive)
O=C(O)c1ccc(Nc2nc(-c3cccnc3)nc3ccccc23)cc1	9.3 µM
CCN(C(=O)CN1CCCCCC1)c1c(N)n(Cc2ccccc2)c(=O)[nH]c1=O	> 30 µM (inactive)
CNc1nnc(-c2cc3ccccc3oc2=O)s1	8.99 µM
C[C@H](CO)N1C[C@H](C)[C@@H](CN(C)S(=O)(=O)c2cccs2)Oc2c(NS(=O)(=O)c3ccc(F)cc3)cccc2C1=O	> 30 µM (inactive)
COc1c(-c2ccc(O)cc2)oc2cc(O)cc(O)c2c1=O	6.97 µM
O=c1[nH]ncn1-c1ccccc1	> 30 µM (inactive)
Cc1cc(=O)[nH]c(SCC(=O)O)c1C#N	> 30 µM (inactive)
CCOc1ccccc1C1N(c2ccc(OC)cc2)C(=O)C2CCCN21 (stereo unspecified)	> 30 µM (inactive)
Cc1nn2cc(-c3ccccc3)nc2[nH]c1=O	> 30 µM (inactive)
CC(C)NC(=O)Nc1ccc(Br)cc1Cl	> 30 µM (inactive)
O=[N+]([O-])c1cc(S(=O)(=O)N2CCCC2)ccc1NCCCN1CCOCC1	> 30 µM (inactive)
Cc1cc(C)c(/C=N/NC(=O)c2nnn(-c3nonc3N)c2CN2CCC(C)CC2)c(C)c1	> 30 µM (inactive)
COc1cc(C(=O)NCCC(=O)NCCN2CCOCC2)cc(OC)c1OC	> 30 µM (inactive)
COc1ccc(CC(=S)N2CCOCC2)cc1	> 30 µM (inactive)
CCOC(=O)C1CCN(c2c(C(=O)c3ccccc3)cnc3ccc(Cl)cc23)CC1	> 30 µM (inactive)
